Results taken from paper PMC10609499, “In Vitro Assessment of the Antidiabetic and Anti-Inflammatory Potential of Artemisia absinthium, Artemisia vulgaris and Trigonella foenum-graecum Extracts Processed Using Membrane Technologies” (Molecules, 2023).
Where two headings read alike, the source gives them in different places.

Experiments:
[1] = Reducing power activity (iron (III) to iron (II) reduction); conditions: absorbance at 700 nm; mean ± SD of triplicate
Experimental: • ○ Reducing Power Activity (Iron (III) to iron (II) reduction) Reducing power was determined according to a previously described procedure. The absorbance was measured spectrophotometrically at 700 nm and calculation was carried out using the following formula:Reducing power (%) = [(AA − AB)/AA] × 100(3) where AA = sample absorbance; AB = control absorbance.

[2] = DPPH radical scavenging activity; conditions: absorbance at 517 nm after 10 min; mean ± SD of triplicate
Experimental: The scavenging activity on the DPPH radical of samples was determined by measuring the decrease in the DPPH maximum absorbency at 517 nm after 10 min [64] and was calculated as follows:radical scavenging activity (%) = [(AB − AA)/AB] × 100(2) where: AB = control absorbance and AA = sample absorbance.

[3] = molecular target: T1, α-amylase from hog pancreas (EC 3.2.1.1) (Sus scrofa, UniProt P00690); experiment: α-Amylase inhibition assay; assay type: biochemical; conditions: hog pancreas enzyme, starch substrate, 37 °C, DNS, pH 6.9; mean ± SD of triplicate
T1 construct: from tissue; host or cells: hog pancreas
T1 sequence (P00690 16-511): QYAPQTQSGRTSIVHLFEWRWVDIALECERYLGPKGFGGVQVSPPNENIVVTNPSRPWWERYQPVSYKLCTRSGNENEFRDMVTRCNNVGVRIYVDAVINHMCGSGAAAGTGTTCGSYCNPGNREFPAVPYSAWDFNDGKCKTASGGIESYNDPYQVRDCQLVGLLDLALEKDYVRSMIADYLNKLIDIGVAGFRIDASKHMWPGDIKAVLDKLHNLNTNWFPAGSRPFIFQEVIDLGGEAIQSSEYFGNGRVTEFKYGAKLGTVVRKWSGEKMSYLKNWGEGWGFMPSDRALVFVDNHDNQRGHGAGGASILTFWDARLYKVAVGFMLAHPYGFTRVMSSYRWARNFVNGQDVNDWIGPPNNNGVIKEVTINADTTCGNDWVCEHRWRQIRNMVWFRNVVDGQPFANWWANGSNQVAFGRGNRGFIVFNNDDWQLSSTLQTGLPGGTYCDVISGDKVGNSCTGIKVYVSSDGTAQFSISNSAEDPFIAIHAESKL
Experimental: The α-amylase inhibition assay was performed according to the Ranilla method, which was slightly modified. Thus, 100 μL of extract was mixed with 250 μL of α-amylase from hog pancreas (EC 3.2.1.1) (0.5 mg/mL in 0.02 M sodium phosphate buffer, pH 6.9 with 0.006 M NaCl) and was incubated at 37 °C for 20 min; then, 250 μL of starch solution (1% in sodium phosphate buffer) was added, and the mixture was incubated at 37 °C for 30 min; then, 500 μL of dinitrosalicylic acid (DNS) was added and the mixture was boiled for 5 min. Finally, 5 mL of distilled water was added to the reaction mixture. […] The calculation of the results was carried out using the following formula:(4) % Amylase inhibition=ΔAcontrol−ΔAsample/ΔAcontrol × 100
(§1) The IC50 values were calculated via the linear regression analysis. Significant statistical differences were considered at p < 0.05.

[4] = molecular target: T2, lipoxygenase (EC 1.13.11.12) (Glycine max, UniProt P08170); experiment: Lipoxygenase inhibition assay; assay type: biochemical; conditions: 234 nm, mean ± SD of triplicate
T2 sequence (P08170 1-839): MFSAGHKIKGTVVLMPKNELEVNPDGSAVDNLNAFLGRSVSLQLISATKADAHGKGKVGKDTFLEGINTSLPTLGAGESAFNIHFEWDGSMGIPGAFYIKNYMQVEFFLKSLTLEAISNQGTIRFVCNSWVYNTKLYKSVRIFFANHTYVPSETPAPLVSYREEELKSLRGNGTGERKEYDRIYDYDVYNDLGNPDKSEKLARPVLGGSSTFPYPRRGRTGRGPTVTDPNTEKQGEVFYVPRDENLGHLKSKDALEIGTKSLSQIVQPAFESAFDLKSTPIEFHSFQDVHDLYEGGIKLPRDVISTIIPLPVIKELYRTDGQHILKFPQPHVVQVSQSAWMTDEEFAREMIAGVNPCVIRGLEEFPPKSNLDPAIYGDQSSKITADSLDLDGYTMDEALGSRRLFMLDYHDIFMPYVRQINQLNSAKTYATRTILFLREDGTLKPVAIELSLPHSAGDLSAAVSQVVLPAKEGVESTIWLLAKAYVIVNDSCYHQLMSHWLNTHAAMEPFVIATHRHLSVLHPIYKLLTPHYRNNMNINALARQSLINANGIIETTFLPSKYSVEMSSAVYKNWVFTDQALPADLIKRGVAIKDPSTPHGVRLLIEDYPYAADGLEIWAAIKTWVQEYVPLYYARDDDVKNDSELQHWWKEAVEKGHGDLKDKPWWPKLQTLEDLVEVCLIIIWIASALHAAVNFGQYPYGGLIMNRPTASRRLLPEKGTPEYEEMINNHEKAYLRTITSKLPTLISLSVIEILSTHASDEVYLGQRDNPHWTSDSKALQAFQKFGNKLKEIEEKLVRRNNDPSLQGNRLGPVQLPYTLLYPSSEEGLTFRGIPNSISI
Experimental: as §1

[5] = molecular target: α-glucosidase from Saccharomyces cerevisiae (EC 3.2.1.20) (Saccharomyces cerevisiae, UniProt P53341); experiment: α-Glucosidase inhibition assay; assay type: biochemical
Sequence of α-glucosidase from Saccharomyces cerevisiae (EC 3.2.1.20) (P53341 whole entry): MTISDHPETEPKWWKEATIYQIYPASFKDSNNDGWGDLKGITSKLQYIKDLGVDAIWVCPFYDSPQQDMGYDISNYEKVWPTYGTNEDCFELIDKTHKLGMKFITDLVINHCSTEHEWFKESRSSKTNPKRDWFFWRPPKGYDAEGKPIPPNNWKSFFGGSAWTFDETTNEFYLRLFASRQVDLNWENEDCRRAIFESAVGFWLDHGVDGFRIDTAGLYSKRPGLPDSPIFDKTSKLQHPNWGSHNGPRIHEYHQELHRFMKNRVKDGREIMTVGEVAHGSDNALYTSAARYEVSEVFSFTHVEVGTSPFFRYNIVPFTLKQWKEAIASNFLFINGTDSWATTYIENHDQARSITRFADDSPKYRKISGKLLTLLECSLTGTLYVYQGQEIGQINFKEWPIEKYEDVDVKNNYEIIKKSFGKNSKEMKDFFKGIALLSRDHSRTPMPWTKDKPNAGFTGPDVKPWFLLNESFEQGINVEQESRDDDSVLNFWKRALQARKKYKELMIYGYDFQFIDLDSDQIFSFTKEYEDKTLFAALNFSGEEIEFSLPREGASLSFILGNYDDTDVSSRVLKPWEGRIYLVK
Experimental: as §1

[6] = linoleic acid substrate, read-out: Inhibition of LOX IC50 (converted)

SMILES	IC50 [3] [µM]	IC50 [4, 6] [µM]	also measured
O=C1O[C@H]([C@@H](O)CO)C(O)=C1O [Ascorbic acid]	–	–	Reducing Power % [1]: 34.5 ± 1.3%; % DPPH Inhibition [2]: 96.9 ± 3.6%
O=C(/C=C/c1ccc(O)c(O)c1)O[C@@H]1C[C@](O)(C(=O)O)C[C@@H](O)[C@H]1O [Chlorogenic acid]	5.36	73.7	–
O=C(/C=C/c1ccc(O)c(O)c1)O[C@H](Cc1ccc(O)c(O)c1)C(=O)O [Rosmarinic acid]	2.5	–	IC50 [5]: 0.5 µM; IC50 ([4]; Inhibition of LOX IC50, linoleic acid substrate): 84.1 µM
C[C@@H]1O[C@@H](OC[C@H]2O[C@@H](Oc3c(-c4ccc(O)c(O)c4)oc4cc(O)cc(O)c4c3=O)[C@H](O)[C@@H](O)[C@@H]2O)[C@H](O)[C@H](O)[C@H]1O [Rutin]	–	36.6	–
